Measurements as given in patent US10399971B2, “Compound for treating or preventing hyperuricemia or gout” (JIANGSU ATOM BIOSCIENCE AND PHARMACEUTICAL CO., LTD., priority 2015, dated 2019).
Values joined by “and” are separate entries in the source; they are usually repeats but may differ in a detail not shown here. Equal values may be shown once. Read-outs that look alike come from different tables or passages of the source.

Experiments:
[1] = system: human normal liver cell line L-02; assay: Cytotoxicity test on human normal liver cell line L-02 (Alamar Blue); format: cell-based; settings: L02, L-02 cells, 120 h incubation, cell viability, read-out: half inhibitory concentration (IC50) against L-02
Procedure: (§1) 2.1 The normal liver cell lines L-02 and WRL-68 were cultured with DMEM culture medium (containing 10% of fetal bovine serum, 100 U/mL of penicillin and 0.1 mg/mL of streptomycin) in an incubator under 5% CO2 at 37° C. until the cell density was about 90%, respectively.
(§2) 2.3 Tested compounds and benzbromarone at different concentration gradients were prepared by using the DMEM culture medium and added into wells at 100 μL/well as compounds wells. The DMEM culture medium was added into wells at 100 μL/well without tested compound as negative control wells.
(§3) This 10× Alamar Blue solution was diluted into 1× Alamar Blue solution with phenol red free DMEM culture medium before use.
(§4) 2.5 The cells were washed with PBS (0.1 M, pH=7.4) twice. The Alamar Blue solution was added into wells at 100 μL/well. 100 μL of Alamar Blue solution was added into wells without cells to serve as blank control wells. The 96-well plate was placed in an incubator under 5% CO2 at 37° C. for 3 h. Each concentration of compound was repeated three times during the test.
(§5) The fluorescence value of the cells containing compound is the F(test compound); the fluorescence value of the cells without compound as blank control is the F(blank control); the fluorescent value of the cells from negative control group is F(negative control). The average value and standard deviation of cell viability of three repeated concentrations was calculated by the following formula: […]
(§6) 2.7 The half inhibitory concentration (IC50) of the compound for the cells L-02 and WRL-68 was obtained from the cell viability by Prism Graph software.

[2] = Pharmacokinetics following intravenous and oral administration in SD rats; format: in vivo
From the text: Dose formulation preparation for PO: Weight out the required amount of compound 74. Added approximately 70% of 0.5% CMC-Na with stirring, vortexing and sonication to mix well until visually well suspension. Then added the remaining vehicle to target total volume and vortex-mix.
Dose formulation preparation for IV: Weight out the required amount of compound 74. Added appropriate DMSO with sonication until dissolved, then added appropriate HP-β-Cyclodextrin water solution (20%, w/v) with vortexing to mix well.
Species: SD rats (SPF Level); sex: male; source: Sino-British SIPPR/BK Lab Animal Ltd., Shanghai.
The animals that dosed via orally were fasted overnight (10-14 hours) prior to oral administration. Food supply to the animals dosed orally were resumed 4 h post-dose.
Blood samples (approximately 250 μL/sample) were collected via jugular vein at Pre-dose and Post-dose (5 min, 15 min, 30 min, 1 h, 2 h, 4 h, 6 h, 8 h, and 24 h). Blood samples were placed into tubes containing sodium heparin and centrifuged conditions at 8000 rpm for 6 minutes at 2-8° C. to separate plasma from the samples. Plasma sample (50 μL) were transferred to tube, then 250 μL IS solution (200 ng/mL Tolbutamide) was added to it. After vortexing for 1 min and centrifuging for 5 min at 15000 rpm, 200 μL aliquots of supernatant were transferred to 96-well plate for LC-MS/MS analysis. The calibration curve of compound 74 was ranging from 1 to 1000 ng/mL. The LLOQ is 1 ng/mL for plasma.
A non-compartemental module of WinNonlin® Professional 5.2 was used to calculate parameters. The bioavailability was calculated as F %=(Dose(IV)×AUC(0-t)(PO))/(Dose(PO)×AUC(0-t)(IV))×100%.

[3] = system: human normal liver cell line WRL-68; assay: Cytotoxicity test on human normal liver cell line WRL-68 (Alamar Blue); format: cell-based; settings: WRL68, WRL-68 cells, 120 h incubation, cell viability, read-out: half inhibitory concentration (IC50) against WRL-68
Procedure: as §1, §2, §3, §4, §5, §6

[4] = IV 1 mg/kg, individual rats 201-203, 1 mg/kg
[5] = PO 10 mg/kg, individual rats 101-103, 10 mg/kg

Structure (SMILES): CCc1nc2ccccn2c1C(=O)c1cc(Br)c(O)c(C#N)c1 [Compound 74, 3-bromo-5-(2-ethylimidazo[1,2-a]pyridine-3-carbonyl)-2-hydroxybenzonitrile hydrogen chloride]
- IC50 [1]: > 100 µM
- Clz ([2]; IV 1 mg/kg, Mean of 3 rats): 1.803 mL/min/kg
- AUC(0-t) [2, 4]: 9076.84 ng·h/mL and 8847.27 ng·h/mL
- Clz [2, 4]: 1.8372 mL/min/kg and 1.761 mL/min/kg and 1.8108 mL/min/kg
- Cmax [2, 4]: 6705.53 ng/mL and 6885.21 ng/mL
- MRT(0-∞) [2, 4]: 5.60 h
- Vz [2, 4]: 0.91779 L/kg and 0.93449 L/kg
- t1/2 [2, 4]: 6.00 h
- F (%) ([2]; PO 10 mg/kg vs IV 1 mg/kg, from AUC(0-t), individual rats 101-103): 108.04% and 100.28%
- AUC(0-t) [2, 5]: 96188.83 ng·h/mL and 89284.20 ng·h/mL
- Cmax [2, 5]: 6976.14 ng/mL and 8251.74 ng/mL
- MRT(0-∞) [2, 5]: 6.80 h and 6.00 h
- Tmax [2, 5]: 2.00 h and 6.00 h
- t1/2 [2, 5]: 3.00 h and 2.70 h
- half-life ([2]; male, SD, rat, plasma, iv, 1 mg/kg, IV 1 mg/kg, Mean of 3 rats): 5.8 h
- AUC(0-t) ([2]; male, SD, rat, plasma, iv, 1 mg/kg, IV 1 mg/kg, Mean of 3 rats, read-out: AUC(0-t)): 8900 ng·h/mL
- Cmax ([2]; male, SD, rat, plasma, iv, 1 mg/kg, IV 1 mg/kg, Mean of 3 rats, read-out: Cmax): 6360 ng/mL
- MRT inf ([2]; male, SD, rat, plasma, iv, 1 mg/kg, IV 1 mg/kg, Mean of 3 rats, read-out: MRT(0-∞)): 5.5 h
- Tmax ([2]; male, SD, rat, plasma, iv, 1 mg/kg, IV 1 mg/kg, Mean of 3 rats, read-out: Tmax): 0.1 h
- Vd ([2]; male, SD, rat, plasma, iv, 1 mg/kg, IV 1 mg/kg, Mean of 3 rats, read-out: Vz): 0.904 L/kg
- half-life ([2]; male, SD, rat, plasma, iv, 1 mg/kg, IV 1 mg/kg, individual rats 201-203): 5.4 h
- AUC(0-t) ([2]; male, SD, rat, plasma, iv, 1 mg/kg, IV 1 mg/kg, individual rats 201-203, read-out: AUC(0-t)): 8790 ng·h/mL
- Cmax ([2]; male, SD, rat, plasma, iv, 1 mg/kg, IV 1 mg/kg, individual rats 201-203, read-out: Cmax): 5490 ng/mL
- MRT inf ([2]; male, SD, rat, plasma, iv, 1 mg/kg, IV 1 mg/kg, individual rats 201-203, read-out: MRT(0-∞)): 5.4 h
- Tmax ([2]; male, SD, rat, plasma, iv, 1 mg/kg, IV 1 mg/kg, individual rats 201-203, read-out: Tmax): 0.1 h
- Vd ([2]; male, SD, rat, plasma, iv, 1 mg/kg, IV 1 mg/kg, individual rats 201-203, read-out: Vz): 0.859 L/kg
- bioavailability ([2]; male, SD, rat, plasma, po, 10 mg/kg, PO 10 mg/kg vs IV 1 mg/kg, from AUC(0-t), Mean of 3 rats): 103%
- bioavailability ([2]; male, SD, rat, plasma, po, 10 mg/kg, PO 10 mg/kg vs IV 1 mg/kg, from AUC(0-t), individual rats 101-103): 101%
- half-life ([2]; male, SD, rat, plasma, po, 10 mg/kg, PO 10 mg/kg, Mean of 3 rats): 2.9 h
- AUC(0-t) ([2]; male, SD, rat, plasma, po, 10 mg/kg, PO 10 mg/kg, Mean of 3 rats, read-out: AUC(0-t)): 91800 ng·h/mL
- Cmax ([2]; male, SD, rat, plasma, po, 10 mg/kg, PO 10 mg/kg, Mean of 3 rats, read-out: Cmax): 8140 ng/mL
- MRT inf ([2]; male, SD, rat, plasma, po, 10 mg/kg, PO 10 mg/kg, Mean of 3 rats, read-out: MRT(0-∞)): 6.3 h
- Tmax ([2]; male, SD, rat, plasma, po, 10 mg/kg, PO 10 mg/kg, Mean of 3 rats, read-out: Tmax): 3.3 h
- half-life ([2]; male, SD, rat, plasma, po, 10 mg/kg, PO 10 mg/kg, individual rats 101-103): 2.9 h
- AUC(0-t) ([2]; male, SD, rat, plasma, po, 10 mg/kg, PO 10 mg/kg, individual rats 101-103, read-out: AUC(0-t)): 89900 ng·h/mL
- Cmax ([2]; male, SD, rat, plasma, po, 10 mg/kg, PO 10 mg/kg, individual rats 101-103, read-out: Cmax): 9210 ng/mL
- MRT inf ([2]; male, SD, rat, plasma, po, 10 mg/kg, PO 10 mg/kg, individual rats 101-103, read-out: MRT(0-∞)): 5.9 h
- IC50 [3]: > 100 µM
